Assay results: PMC10115881, “Disrupting the α-synuclein-ESCRT interaction with a peptide inhibitor mitigates neurodegeneration in preclinical models of Parkinson’s disease” (Nature Communications, 2023)

Experiments:
[1] = system: WT a-syn-mediated cytotoxicity in HEK293 cells; assay: Pooled lentiviral 7-mer peptide cytotoxicity screen, WT a-syn + MG132; type: cell-based, human;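 as to Slope Norm Reads: reads normalized to total peptide reads per sample with scalar factor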
Source text: We used a lentiviral library of 50,549 7-mer peptides enriched in PPI motifs[13] on a green fluorescent protein (GFP) scaffold (Fig. 1A). We infected cells in a pooled format and the amino acid sequence of each peptide served as its own barcode. By using a low multiplicity of infection followed by puromycin selection, each infected cell expressed one unique GFP-peptide. We screened for peptides that reduced a-syn-mediated cytotoxicity or a-syn oligomers in parallel (Fig. 1A). To cause cytotoxicity relevant to PD, we induced proteostatic stress in HEK293 cells by inhibiting the proteasome with MG132 and overexpressing human WT a-syn associated with idiopathic PD in one screen or the more toxic mutant A53T a-syn associated with familial PD in a second screen. This combination of a-syn overexpression and pharmacological proteasome inhibition led to death of most cells, with only those that expressed a protective peptide surviving. By extracting genomic DNA from the surviving cells and amplifying the peptide coding sequences, we identified the protective peptides (Fig. 1A). To detect a-syn oligomers, we used a protein fragment complementation assay (PCA) of a-syn oligomerization in HEK293 cells. In this assay, human A53T a-syn was fused to either the C- or N-terminal half of yellow fluorescent protein (YFP). No fluorescence is detectable while a-syn exists in monomers but, when a-syn oligomerizes, the two halves of YFP come in close enough proximity to form a functional, spontaneously fluorescent protein. […] Our screens yielded 10 hits (Table S1). The hit with the most reads (i.e., the most abundant) was the same peptide in all screens: IPIQLKA (named PDpep1) (Table S1). We validated the cytoprotective effects of PDpep1 in HEK293 cells overexpressing WT or A53T a-syn (Figs. 1B, S1A), as well as its ability to reduce WT or A53T a-syn oligomers in a luciferase-based PCA[18]–[20] compared to a scrambled control peptide (Figs. 1C, S1B).
HEK293T cells (ATCC, CRL-3216) were maintained in DMEM supplemented with 10% FBS and 1% pen/strep/glutamine, and the appropriate selection antibiotics when required. Lentiviruses were made in a 15 cm dish format by transfecting packaging cells (HEK293T) with a three-plasmid system (expression vector, psPAX2 and pMD2.G) and using Polyjet DNA transfection reagent (FroggaBio, SL100688.1). Viral transduction of HEK293T cells were performed with a multiplicity of infection (MOI) of 0.3. Infected cells were selected in puromycin-containing medium to eliminate uninfected cells and three aliquots of cells were collected for sampling of the initial (T0) cell population. Cells were treated with MG132 at concentrations of 0, 10, 25, or 50 µM. For the cell viability screen, surviving cells were collected and gDNA was extracted for identification of peptide inhibitors of cell toxicity. For the inhibition of a-syn aggregation screen, a protein fragment complementation assay (PCA) was used by transfecting cells with split YFP-a-syn constructs following stable expression of the peptides. Cells were sorted based on their YFP fluorescence intensities with a FACSVantage SE cell sorter (BD Bioscience) and gDNA was extracted for identification of peptides.
Genomic DNA (gDNA) from peptide expressing cells at different time-points was extracted using QIAamp DNA Blood Mini Kit. PCR amplifications of peptides from gDNA in parallel with the lentiviral plasmid library (naïve library) were performed using indexed Illumina PCR primers to incorporate both the Illumina adapter sequences and indexing sequences. Each 50 μl reaction contained 3.2 μg of template, 2× PCR buffer, 2× enhancer solution, 300 μM each dNTP, 900 nM each of Adapter A (5′-[…]-[…]-3′) and Adapter B (5′-[…]-[…]-3′), 1 mM MgSO4, 3.75 units of Platinum Pfx polymerase, and water to 50 μl. […]

[2] = system: LAMP1; assay: LAMP1 levels in HEK293 cells; type: cell-based, human; settings: A53T a-syn overexpression
Protocol: Infected or transfected cells were scraped from six-well dishes and lysed with lysis buffer (50 mM Tris-HCl pH 7.4, 1% Nonidet P-40, 150 mM NaCl, 1 mM EDTA, 1× protease inhibitor mixture (Sigma)) for 30 min at 4 °C. The insoluble pellet was removed following a 10,000 rpm spin for 5 min at 4 °C. Lysates were analyzed by SDS-PAGE/immunoblot using 4–20% Mini-PROTEAN Tris-glycine gels (Bio-Rad), transferred to polyvinylidene fluoride (PVDF) membranes, and blocked in 5% milk containing PBS-Tween-20 (0.1%) for 1 h. PVDF membranes were then incubated with specified primary antibodies followed by incubation with horseradish peroxidase-conjugated secondary antibodies (anti-mouse HRP-linked, Cell Signaling, catalog #7076, 1:5000; anti-rabbit HRP-linked, Cell Signaling, catalog #7074, 1:5000) and detected using enhanced chemiluminescence (GE Healthcare). […]
After fixation, cells were permeabilized with 0.2% Triton-X-100 for 15 min, washed three times with PBS and then incubated with blocking solution (1% BSA, 22.52 mg/mL glycine, 0.1% Tween-20 in PBS or 0.4% saponin, 1% BSA, and 5% goat or donkey serum in PBS) for 1 h. […] Following another three washes with PBS, nuclei were counterstained with DAPI (ThermoFisher) and then coverslips were mounted on slides using Dako fluorescence mounting medium (Agilent) and sealed using clear nail varnish.

Row | Substance | Reads 10M MG132 [1] | Reads 25M MG132 [1] | Reads 50M MG132 [1] | Slope Norm Reads [1] | Reads 0M MG132 ([1]; Illumina reads, average Phred >30) | Effect on LAMP1 levels, HEK293 [2]
1 | IPIQLKA [PDpep1, initial screen hit peptide IPIQLKA] | 1 | 1629 | 3375 | 3.45 | 90 | –
2 | DEEIERQLKALG [PDpep1.3] | – | – | – | – | – | LAMP1 levels were restored
